Source: ChEMBL document CHEMBL4706484, “Apigenin-rivastigmine hybrids as multi-target-directed liagnds for the treatment of Alzheimer's disease” (Eur J Med Chem, 2020)
Calls of active or inactive are those of the source. No cut-off for these calls is given here.

Key:
Acetylcholinesterase [1] = biological target: T1, Acetylcholinesterase (Homo sapiens, UniProt P22303); assay: Inhibition of human erythrocytes AChE using acetylthiocholine iodide as substrate measured after 15 mins by Ellman's method; type: tissue-based, Erythrocyte
T1 sequence (P22303 whole entry): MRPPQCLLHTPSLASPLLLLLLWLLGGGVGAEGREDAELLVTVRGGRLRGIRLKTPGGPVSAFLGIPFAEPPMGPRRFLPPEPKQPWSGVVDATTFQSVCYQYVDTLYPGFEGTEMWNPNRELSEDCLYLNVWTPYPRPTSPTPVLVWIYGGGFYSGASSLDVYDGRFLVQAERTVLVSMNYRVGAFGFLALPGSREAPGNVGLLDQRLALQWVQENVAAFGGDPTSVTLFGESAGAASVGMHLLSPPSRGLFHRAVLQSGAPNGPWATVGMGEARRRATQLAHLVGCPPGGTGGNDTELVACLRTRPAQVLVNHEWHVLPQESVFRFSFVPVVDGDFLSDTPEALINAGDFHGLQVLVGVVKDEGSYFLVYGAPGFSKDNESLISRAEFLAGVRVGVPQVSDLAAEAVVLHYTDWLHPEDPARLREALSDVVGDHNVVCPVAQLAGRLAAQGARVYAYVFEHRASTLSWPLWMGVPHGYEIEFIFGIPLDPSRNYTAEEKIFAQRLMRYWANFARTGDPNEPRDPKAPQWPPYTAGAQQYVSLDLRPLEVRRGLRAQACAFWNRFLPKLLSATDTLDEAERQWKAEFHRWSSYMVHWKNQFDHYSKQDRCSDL

[2] = Drug metabolism in rat liver microsomes assessed as metabolite formation by UPLC-MS/MS analysis; type: ADME, Microsome
Danio rerio [3] = organism: Danio rerio; assay: Antialzheimer activity against 3 dpf zebrafish model of AlCl3-induced AD assessed as change in motility distance at 4.2 ug/ml (reference value: 5204 mm); type: functional; details: dose 4.2 µg/ml
[4] = Acute toxicity in 2 dpf zebrafish assessed as short or misshapen jaw at 1.39 to 12.5 ug/ml measured after 3 days; parameters: species or system Danio rerio; details: in vivo, 72 h, dose 1.39-12.5 µg/ml, time 3 day
[5] = Acute toxicity in 2 dpf zebrafish assessed as kidney edema at 1.39 to 12.5 ug/ml measured after 3 days; parameters: species or system Danio rerio; details: in vivo, 72 h, dose 1.39-12.5 µg/ml, time 3 day
[6] = Acute toxicity in Kunming mouse assessed as hypokinesia at 2000 mg/kg; type: organism-based; details: in vivo
[7] = Acute toxicity in 2 dpf zebrafish assessed as abnormal trunk at 1.39 to 12.5 ug/ml measured after 3 days; parameters: species or system Danio rerio; details: in vivo, 72 h, dose 1.39-12.5 µg/ml, time 3 day
Cholinesterase [8] = biological target: T2, Cholinesterase (Homo sapiens, UniProt P06276); assay: Pseudo-irreversible inhibition of human serum BChE assessed as enzyme recovery activity at 0.1 times IC50 measured at 240 mins using diluted compound relative to basal level; type: cell-free; parameters: scale not given: the % may be the effect or the level left
T2 sequence (P06276 whole entry): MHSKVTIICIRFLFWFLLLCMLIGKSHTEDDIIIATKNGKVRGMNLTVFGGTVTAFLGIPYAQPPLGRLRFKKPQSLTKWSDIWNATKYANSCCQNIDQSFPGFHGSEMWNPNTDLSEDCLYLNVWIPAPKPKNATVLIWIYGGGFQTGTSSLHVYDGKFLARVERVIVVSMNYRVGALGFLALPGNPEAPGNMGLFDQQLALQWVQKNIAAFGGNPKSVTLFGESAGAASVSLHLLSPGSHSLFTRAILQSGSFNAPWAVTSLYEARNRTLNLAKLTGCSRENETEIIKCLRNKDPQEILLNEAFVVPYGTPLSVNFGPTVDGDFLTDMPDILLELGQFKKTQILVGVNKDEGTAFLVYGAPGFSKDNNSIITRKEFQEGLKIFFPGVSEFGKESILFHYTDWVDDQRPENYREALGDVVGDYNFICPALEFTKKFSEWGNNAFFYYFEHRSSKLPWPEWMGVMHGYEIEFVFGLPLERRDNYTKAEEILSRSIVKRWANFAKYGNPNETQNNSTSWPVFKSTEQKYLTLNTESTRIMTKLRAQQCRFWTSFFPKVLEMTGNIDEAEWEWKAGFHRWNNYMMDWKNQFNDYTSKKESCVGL

L02 = assay: Hepatoprotective activity H2O2-induced cell injury in human L02 cells assessed as cell viability at 10 uM measured after 48 hrs by MTT assay (reference value: 56.89 %); type: functional; details: read-out: Activity
Butyrylcholinesterase = Butyrylcholinesterase (Rattus norvegicus, UniProt Q9JKC1); assay: Inhibition of rat serum BChE using acetylthiocholine iodide as substrate measured after 15 mins by Ellman's method; type: cell-free
Sequence of Butyrylcholinesterase (Q9JKC1 whole entry): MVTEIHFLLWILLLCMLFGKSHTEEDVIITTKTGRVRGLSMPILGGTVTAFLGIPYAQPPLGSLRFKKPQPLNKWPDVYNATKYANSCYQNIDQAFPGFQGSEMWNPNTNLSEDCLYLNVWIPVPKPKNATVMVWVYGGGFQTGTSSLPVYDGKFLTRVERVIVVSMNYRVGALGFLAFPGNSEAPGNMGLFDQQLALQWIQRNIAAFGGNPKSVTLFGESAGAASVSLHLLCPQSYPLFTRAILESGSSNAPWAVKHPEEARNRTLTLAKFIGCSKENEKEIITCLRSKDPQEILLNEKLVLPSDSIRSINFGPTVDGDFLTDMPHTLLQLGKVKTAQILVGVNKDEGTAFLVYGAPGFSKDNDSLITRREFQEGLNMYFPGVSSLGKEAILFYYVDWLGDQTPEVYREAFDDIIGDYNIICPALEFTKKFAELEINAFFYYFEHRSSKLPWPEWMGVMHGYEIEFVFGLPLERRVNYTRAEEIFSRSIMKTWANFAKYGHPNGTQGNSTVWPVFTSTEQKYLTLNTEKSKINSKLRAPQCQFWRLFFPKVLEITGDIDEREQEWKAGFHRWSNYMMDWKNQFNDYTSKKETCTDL

[9] = Metal chelating activity assessed as Fe2+-compound complex formation at 37.5 uM in presence of 37.5 uM FeSO4 by UV-Vis spectrophotometric analysis
Danio rerio [10] = organism: Danio rerio; assay: Protection against amyloid beta (1 to 40 residues)-induced vascular injury in transgenic zebrafish assessed as vascular injury rate at 1.4 ug/ml (reference value: 73.3 %); type: functional; details: dose 1.4 µg/ml
[11] = Acute toxicity in Kunming mouse assessed as dispirited at 2000 mg/kg; type: organism-based; details: in vivo
[12] = biological target: Amyloid-beta precursor protein (Homo sapiens) (UniProt P05067); assay: Inhibition of self-induced amyloid beta (1 to 42) (unknown origin) aggregation at 25 uM measured after 24 hrs by TEM analysis
Sequence of Amyloid-beta precursor protein (Homo sapiens) (P05067 whole entry): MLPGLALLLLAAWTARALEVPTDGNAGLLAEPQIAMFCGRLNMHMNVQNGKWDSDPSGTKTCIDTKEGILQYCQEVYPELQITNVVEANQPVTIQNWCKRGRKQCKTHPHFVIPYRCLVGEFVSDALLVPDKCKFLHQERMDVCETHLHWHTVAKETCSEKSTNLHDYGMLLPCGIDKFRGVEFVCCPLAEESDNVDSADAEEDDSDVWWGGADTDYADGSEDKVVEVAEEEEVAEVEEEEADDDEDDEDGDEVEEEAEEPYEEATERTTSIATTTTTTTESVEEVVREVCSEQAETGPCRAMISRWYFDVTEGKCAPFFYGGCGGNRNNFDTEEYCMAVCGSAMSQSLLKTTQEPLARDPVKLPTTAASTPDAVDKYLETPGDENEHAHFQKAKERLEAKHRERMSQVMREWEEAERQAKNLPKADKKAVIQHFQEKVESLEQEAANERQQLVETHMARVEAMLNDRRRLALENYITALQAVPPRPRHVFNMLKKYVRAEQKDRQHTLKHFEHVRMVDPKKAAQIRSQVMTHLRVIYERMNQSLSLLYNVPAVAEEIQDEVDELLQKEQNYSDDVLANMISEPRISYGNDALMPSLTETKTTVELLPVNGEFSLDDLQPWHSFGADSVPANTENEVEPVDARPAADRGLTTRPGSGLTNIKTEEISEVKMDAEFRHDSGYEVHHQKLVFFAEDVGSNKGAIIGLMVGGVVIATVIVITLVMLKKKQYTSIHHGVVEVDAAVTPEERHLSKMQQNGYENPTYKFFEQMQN

Danio rerio [13] = organism: Danio rerio; assay: Antialzheimer activity against 3 dpf zebrafish model of AlCl3-induced AD assessed as motility by measuring efficacy on speed change at 1.4 ug/ml relative to control; type: functional; details: dose 1.4 µg/ml
[14] = Acute toxicity in 2 dpf zebrafish assessed as abnormal intestine at 1.39 to 12.5 ug/ml measured after 3 days; type: tissue-based, Danio rerio; details: in vivo, 72 h, dose 1.39-12.5 µg/ml, time 3 day
PC-12 [15] = assay: Neuroprotective activity against H2O2-induced cell injury in rat PC-12 cells assessed as cell viability at 10 uM preincubated for 2 hrs followed by H2O2 addition and measured after 24 hrs by MTT assay (reference value: 53.8 %); type: functional; details: time 26 hrs, read-out: Activity
[16] = Acute toxicity in 2 dpf zebrafish assessed as abnormal tail at 1.39 to 12.5 ug/ml measured after 3 days; parameters: species or system Danio rerio; details: in vivo, 72 h, dose 1.39-12.5 µg/ml, time 3 day
[17] = Metal chelating activity assessed as Zn2+-compound complex formation at 37.5 uM in presence of 37.5 uM ZnCl2 by UV-Vis spectrophotometric analysis
[18] = biological target: Amyloid-beta precursor protein (Homo sapiens) (UniProt P05067); assay: Disaggregation of self-induced amyloid beta (1 to 42) (unknown origin) preformed fibrils at 25 uM measured after 48 hrs by TEM analysis
PC-12 [19] = assay: Cytotoxicity against rat PC-12 cells assessed as reduction in cell viability <= 100 uM measured after 48 hrs by MTT assay; type: cell-based; details: pc-12, 48 h
[20] = Acute toxicity in 2 dpf zebrafish assessed as yolk sac absorption delay at 4.17 ug/ml measured after 3 days relative to control; parameters: species or system Danio rerio; details: in vivo, 72 h, at 4.17 µg/mL, time 3 day
Mus musculus = assay: Antialzheimer activity in scopolamine-induced Kunming mouse model of memory impairment assessed as Q30 bases ratio (QC data) in brain hippocampus at 10 mg/kg by illumina sequencing method (reference value: 96.67 %); type: functional
[21] = Toxicity in 3 dpf zebrafish model of AlCl3-induced AD assessed as minimum toxic concentration; parameters: species or system Danio rerio; details: in vivo
[22] = Cytotoxicity against human L02 cells assessed as cell viability at 12.5 uM measured after 72 hrs by MTT assay relative to control; type: cell-based; details: read-out: Activity
[23] = Metal chelating activity assessed as Cu2+-compound complex formation by measuring absorption wavelength at 37.5 uM in presence of 37.5 uM CuCl2 by UV-Vis spectroscopic analysis
[24] = Inhibition of copper-induced amyloid beta (1 to 42) (unknown origin) aggregation at 25 uM by ThT fluorescence assay relative to control
[25] = Cytotoxicity against human L02 cells assessed as cell viability at 6.25 uM measured after 72 hrs by MTT assay relative to control; type: cell-based; details: read-out: Activity
[26] = Acute toxicity in 2 dpf zebrafish assessed as degenerating trunk muscle within somite at 1.39 to 12.5 ug/ml measured after 3 days; type: tissue-based, Danio rerio; details: in vivo, 72 h, dose 1.39-12.5 µg/ml, time 3 day
[27] = Disaggregation of Copper-induced amyloid beta (1 to 42) (unknown origin) preformed fibrils at 25 uM by ThT fluorescence assay relative to control
Acetylcholinesterase [28] = biological target: T1, Acetylcholinesterase; assay: Pseudo-irreversible inhibition of human erythrocytes AChE assessed as enzyme recovery activity at 0.1 times IC50 measured at 120 mins using diluted compound relative to control; type: tissue-based; parameters: scale not given: the % may be the effect or the level left; details: Erythrocyte
Danio rerio [29] = organism: Danio rerio; assay: Antialzheimer activity against 3 dpf zebrafish model of AlCl3-induced AD assessed as increase in motility distance; type: functional, organism-based
[30] = Acute toxicity in 2 dpf zebrafish assessed as abnormal notochord at 1.39 to 12.5 ug/ml measured after 3 days; parameters: species or system Danio rerio; details: in vivo, 72 h, dose 1.39-12.5 µg/ml, time 3 day
Cholinesterase [31] = biological target: T2, Cholinesterase; assay: Pseudo-irreversible inhibition of human serum BChE assessed as enzyme recovery activity at 0.1 times IC50 measured immediately using diluted compound; type: cell-free; parameters: scale not given: the % may be the effect or the level left
Danio rerio [32] = organism: Danio rerio; assay: Protection against amyloid beta (1 to 40 residues)-induced vascular injury in transgenic zebrafish assessed as efficacy on motility at 1.4 ug/ml relative to control; type: functional; details: dose 1.4 µg/ml
[33] = Antioxidant activity of compound assessed as trolox equivalent antioxidant capacity by ORAC-FL assay; type: functional
[34] = Toxicity in 2 dpf zebrafish at 1.39 ug/ml measured after 3 days; parameters: species or system Danio rerio; details: in vivo, 72 h, dose 1.39 µg/ml, time 3 day
[35] = Acute toxicity in 2 dpf zebrafish assessed as bradycardia at 1.39 to 12.5 ug/ml measured after 3 days; parameters: species or system Danio rerio; details: in vivo, 72 h, dose 1.39-12.5 µg/ml, time 3 day
[36] = Cytotoxicity against human L02 cells assessed as cell viability at 25 uM measured after 72 hrs by MTT assay relative to control; type: cell-based; details: read-out: Activity
[37] = Drug metabolism in rat intestine assessed as metabolite formation by UPLC-MS/MS analysis; type: ADME, tissue-based

CCN(C)C(=O)Oc1ccc(-c2cc(=O)c3c(O)cc(OC(=O)N(C)CC)cc3o2)cc1
IC50 (Acetylcholinesterase [1]): 6.8 µM | Drug metabolism [2]: Metabolite_Detected | Activity (Danio rerio [3]): 6562 mm | Activity [4]: Non-Toxic | Activity [5]: Non-Toxic | Activity [6]: Toxic | Activity [7]: Non-Toxic | Activity (Cholinesterase [8]): 71.7% | viability at 10 µM (L02): 75.6% | IC50 (Butyrylcholinesterase): 12.1 µM | Activity [9]: inactive | Activity (Danio rerio [10]): 60% | Activity [11]: Toxic | inhibition [12]: Active | Efficacy (Danio rerio [13]): 58% | Activity [14]: Non-Toxic | viability at 10 µM (PC-12 [15]): 76.7% | Activity [16]: Non-Toxic | Activity [17]: inactive | Activity [18]: Active | Activity (PC-12 [19]): Non-Toxic | Activity [20]: 33.3% | Activity (Mus musculus): 96.43% | MTC [21]: 12.5 µg/mL | viability at 72 h, 12.5 µM [22]: 95.6% | Activity [23]: 398 nm | inhibition [24]: 78.9% | viability at 72 h, 6.25 µM [25]: 99% | Activity [26]: Non-Toxic | Activity [27]: 64.6% | Activity (Acetylcholinesterase [28]): 83.6% | Activity (Danio rerio [29]): Dose-dependent effect | Activity [30]: Non-Toxic | Activity (Cholinesterase [31]): 44.8% | Efficacy (Danio rerio [32]): 18% | Activity [33]: 1.3 equiv | Activity [34]: Non-Toxic | Activity [35]: Non-Toxic | viability at 72 h, 25 µM [36]: 83.9% | Drug metabolism [37]: Metabolite_Detected
